Data published in US9962341B2, “Active pharmaceutical ingredient (API) comprising cannabinoids for use in the treatment of cancer” (GW Pharma Limited, priority 2014, dated 2018).
Read-outs that look alike come from different tables or passages of the source.

Legend:
[1] = tested on: A549; assay: Cell viability (CellTiter-Blue, 72 h), A549 lung cancer cells; format: cell-based; settings: Homo sapiens
Description: (§1) The following cell lines were tested in this example: Lung Cancer (A549, NCI-H460); Pancreatic cancer (PANC1, Mia-Pa-Ca-2); Melanoma (WM115, A375); Ovarian cancer (OVCAR3, SKOV3); Gastric cancer (MKN45, HGC-27); Renal cancer (ACHN) and Bladder Cancer (RT112).
(§2) Each tumour cell line was maintained in vitro in RPMI 1640+10% heat inactivated FBS and 2 mM L-glutamine (growth media) at 37° C. in 5% CO2 and humidified conditions. The cells were harvested, washed, re-suspended into growth medium and counted. The cells were re-suspended into assay media (RPMI 1640+5% heat inactivated FBS+ and 2 mM L-glutamine) at 4×10^4 cells/ml (dependent upon cell type) and plated into the middle 240 wells of 384 well tissue culture plates (Corning CellBind, black-wall plates) 25 μl/well aliquots; 50 μl of growth media was aliquoted into the outer wells. There were 3 plates for each cell line.
(§3) The plates were incubated overnight at 37° C., in 5% humidified CO2.
(§4) The phytocannabinoid test compounds were prepared in 100% DMSO vehicle at a stock concentration of 20 and 40 mM.
(§5) Starting with the 20 mM stock in DMSO, this was serially diluted (2 fold) in DMSO in a 96-well plate, to 20 (no dilution), 10, 5, 2.5, 1.25, 0.625, 0.315, 0.157 and […]. Following this, 10 ul of each compound dilution was diluted into 990 ul of 1% (v/v) FBS media in a deep well block making the final concentrations of 200, 100, 50, 25, 12.5, 6.25, 3.125, 1.56 and 0.79 μM (2× final assay concentrations and 1% DMSO).
(§6) An equal volume of each cannabinoid in the combination (stock concentration 40 mM) was mixed together to make a stock of 20 mM of each cannabinoid in DMSO. This was serially diluted (2 fold) in DMSO in a 96-well plate, to 20 (no dilution), 10, 5, 2.5, 1.25, 0.625, 0.315, 0.157 and […]. Following this, 10 ul of each combination dilution was diluted into 990 ul of 1% (v/v) FBS media in a deep well block making the final concentrations of 200, 100, 50, 25, 12.5, 6.25, 3.125, 1.56 and 0.79 μM (2× final assay concentrations and 1% DMSO).
Taxotere SOC was prepared in 100% DMSO to give a stock concentration of 10 mM. This was diluted in DMSO from the stock solution to 200 μM, then serially diluted (3-fold) in DMSO to 200 (no dilution), 66.66, 22.22, 7.41, 2.47, 0.82, 0.27, 0.09, 0.03 μM. 10 ul of each of the taxotere dilutions was diluted in 990 ul of 1% (v/v) FBS media making the final concentrations of 2, 0.67, 0.22, 0.074, 0.0247, 0.0082, 0.0027 0.0009, 0.0003 μM (2× final assay concentrations and 1% DMSO).
(§7) The plates were incubated for 72 h at 37° C. in 5% humidified CO2. To develop the plates, at 72 h, 10 μl of CellTiter-Blue™ reagent was added to each test/blank well.
(§8) The plates were incubated at 37° C., 5% humidified CO2. Fluorescence was measured using a Flex II Station plate reader (570 nm excitation wavelength, 600 nm emission wavelength, 590 nm cut-off) after 3 h.
(§9) The phytocannabinoid compounds CBD, CBGA, CBG, CBDA, THCV and THC were tested on a panel of lung (A549, NCI-H460), pancreatic (PANC1, Mia-Pa-Ca-2), melanoma (WM115, A375), ovarian (OVCAR3, SKOV3), gastric (MKN45, HGC-27), renal (ACHN) and bladder (RT112) cancer cell lines according to the protocol for 72 h in media containing 1% FBS.
(§10) The IC50 values for each phytocannabinoid and combination of CBD with the other phytocannabinoids was calculated for each cell line. The raw data values expressed in relative fluorescent units were normalised to the vehicle for each individual plate and any reduction in fluorescence indicated a decrease in viability.
(§11) This calculation was as described in Example 1 above.

[2] = tested on: WM115; assay: Cell viability (CellTiter-Blue, 72 h), WM115 melanoma cells; format: cell-based; settings: Homo sapiens, WM-115, WM115, 1% FBS
Description: as §1, §2, §3, §4, §5, §6
Cisplatin (stock of 1 mg/ml=3.33 mM in water) was diluted in 1% FBS media to give a stock concentration of 1 mM. This was then diluted in 1% FBS media from the stock solution to 200 μM, then serially diluted (3-fold) in 1% FBS media to 200 (no dilution), 66.66, 22.22, 7.41, 2.47, 0.82, 0.27, 0.09, 0.03 μM (2× final assay concentrations; no DMSO).
as §7, §8, §9, §10, §11

[3] = A549, 72 h, read-out: Cell line IC50 value
[4] = A549, read-out: Dm (median effect dose)
[5] = 72 h, read-out: Cell line IC50 value
[6] = read-out: Dm (median effect dose)

SMILES: CCCCCc1cc(O)c2c(c1)OC(C)(C)[C@@H]1CCC(C)=C[C@@H]21 [THC, Tetrahydrocannabinol, reference compound]
- IC50 [1, 3]: 5.5 µM
- IC50 [1, 4]: 4.08 µM
- IC50 [2, 5]: 2.9 µM
- IC50 [2, 6]: 3.17 µM

SMILES: C=C(C)[C@@H]1CCC(C)=C[C@H]1c1c(O)cc(CCCCC)cc1O [CBD, Cannabidiol]
- IC50 [1, 3]: 3.2 µM
- IC50 [1, 4]: 2.87 µM
- IC50 [2, 5]: 2.4 µM
- IC50 [2, 6]: 2.77 µM

SMILES: C=C(C)[C@@H]1CCC(C)=C[C@H]1c1c(O)cc(CCCCC)c(C(=O)O)c1O [CBDA, Cannabidiolic acid]
- IC50 [1, 3]: 8.5 µM
- IC50 [1, 4]: 7.6 µM
- IC50 [2, 5]: 2.1 µM
- IC50 [2, 6]: 14.7 µM

SMILES: CC(=O)O[C@@]12CO[C@@H]1C[C@H](O)[C@@]1(C)C(=O)[C@H](O)C3=C(C)[C@@H](OC(=O)[C@H](O)[C@@H](NC(=O)OC(C)(C)C)c4ccccc4)C[C@@](O)([C@@H](OC(=O)c4ccccc4)[C@H]21)C3(C)C [Taxotere, Docetaxel, reference compound]
- IC50 [1, 3]: 0.0006 µM

SMILES: CCCCCc1cc(O)c(C/C=C(\C)CCC=C(C)C)c(O)c1C(=O)O [CBGA, Cannabigerolic acid]
- IC50 [1, 3]: 6.1 µM
- IC50 [1, 4]: 6.89 µM
- IC50 [2, 5]: 1.5 µM
- IC50 [2, 6]: 12.9 µM

SMILES: CCCCCc1cc(O)c(C/C=C(\C)CCC=C(C)C)c(O)c1 [CBG, Cannabigerol]
- IC50 [1, 3]: 4.3 µM
- IC50 [1, 4]: 4.23 µM
- IC50 [2, 5]: 3.1 µM
- IC50 [2, 6]: 3.1 µM

SMILES: CCCc1cc(O)c2c(c1)OC(C)(C)[C@@H]1CCC(C)=C[C@@H]21 [THCV, Tetrahydrocannabivarin]
- IC50 [1, 3]: 7.4 µM
- IC50 [1, 4]: 6.59 µM
- IC50 [2, 5]: 6.5 µM
- IC50 [2, 6]: 6.43 µM
